# In US20260356879A1, “CELASTROL DERIVATIVES” (Celloram Inc., priority 2022, published 2026):
# Entries after “also recorded” stand apart in the source; their conditions may differ.
# How the values were obtained:
# [1] = test system: NLRP3 inflammasome; test: Detection of ASC complex and caspase-1 activity in THP-1 cells by Amnis imaging flow cytometry; format: cell-based, human; settings: THP-1, LPS+Nigericin
# Method: FIG. 3A shown images of western blot analysis of THP1 cells treated with LPS, and compound 1 (CLM-001) or compound 22, followed by Nigericin for NLRP3 inflammasome activation. The inflammasome ASC complex in the control cells (LPS+Nigericin) was compared with the treatment of compound 1 (CLM-001) (50 nM, 100 nM), compound 22 (CLM-022) (50 nM, 100 nM), and MCC950 (100 nM, 200 nM). FLICA (green) represents active caspase-1, ASC (red) complex is shown as a red speckle near the nucleus membrane, and DAPI stain for nucleus (blue) captured in the AMNIS analysis. FIG. 3B depicts the cell numbers stained as ASC+ (red) and FLICA+ (green) in the AMNIS were counted in order to compare the level of NLRP3 inflammasome activity in the cells treated as indicated (left). The ASC+ and FLICA+ cells were also plotted as a percentage of total cell count (right). […]
# Amnis Imaging flow cytometry (Luminex Co.) is a high-throughput, single-cell, fluorescence-based image analysis method which can detect inflammasome by acquiring images of cellular distribution of ASC complex and active caspase-1. […] The treated cells were subjected to ASC staining and visualization of active caspase-1 using FLICA, a caspase-1 substrate exerting fluorescence upon cleavage. Finally, the ASC+/FLICA+ cells were counted as THP-1 cells with active NLRP3 inflammasome complex.
# [2] = test system: THP-1 cells; test: LDH release (NLRP3 inflammasome-induced cytotoxicity) in THP-1 cells; format: cell-based, human; settings: for inhibition of inflammasome-induced pyroptosis: human THP-1 macrophages, overall comparison with MCC950, FIG. 7A-7C
# Excerpt: Pyroptosis, a pro-inflammatory form of cell death, is triggered by the activation of NLRP3 inflammasome components (GSDMD and Caspase-1), leading to the release of pro-inflammatory cytokines IL-1β and IL-18, as well as damage-associated molecular patterns (DAMPs). This process elicits a cascade of inflammatory responses, which can persist if dysregulated in affected tissues. Given the significant inhibitory potential of CLM-022 against NLRP3 inflammasome and IL-1β secretion, it was proposed that CLM-022 could effectively enhance cell viability by inhibiting pyroptosis in the context of inflammation and inflammasome activation. This example illustrates a comparative study of the abilities of CLM-022 and MCC950 to protect THP-1 cells from inflammasome-induced pyroptosis.
# After LPS and Nigericin treatment, THP-1 cells were treated with either CLM-022 or MCC950 over a dosage range of 0 μM to 10 μM and cell viability was determined by impermeant live/dead staining dye and flow cytometric analysis. Additionally, NLRP3 inflammasome-induced cytotoxicity was investigated by measuring the level of LDH in the conditioned media after the CLM-022 and MCC950 treatments. Further, Western blotting of samples from the THP-1 cell viability assays was carried out to determine levels of the pyroptosis-mediating molecules, GSDMD and Caspase-1.
# [3] = target: T1, NLRP3 (Homo sapiens, UniProt Q96P20); test: DARTS assay: protection of NLRP3 from Pronase degradation in THP-1 lysates; format: binding; settings: 10 μM, Pronase (50-500 ng/μg of protein), FIG. 6A, 6B
# T1 construct: DARTS with Pronase, NACHT and PYD antibodies
# Excerpt: The NLRP3 inflammasome is composed of a multi-protein complex and the exact molecular mode of NLRP3 activation remains unclear. Currently, there are no NLRP3 inflammasome inhibitors in the clinic, and it is important to identify the mechanism of action and molecular target of potential small molecules that interact with NLRP3. This example illustrates a study of the ability of CLM-022 to protect the NLRP3 molecule as determined using a drug affinity responsive target stability (DARTS) assay. DARTS assay is a robust method to identify small molecule target protein. In case of a drug-target interaction, the small molecule protects target protein from degradation by proteinase (Pronase) whereas free-proteins may be degraded very efficiently in the given condition.
# The DARTS assay was performed using THP-1 lysates pretreated with LPS and Nigericin to induce activation of NLRP3 inflammasome. THP-1 cells (1×10^5/mL) were treated with LPS (100 ng/ml) for 3 hours, followed by 10 μM Nigericin for an additional 30 minutes. Pronase (50-500 ng/μg of protein) was added to the lysate with CLM-022 (10 μM) or MCC950 (10 μM) for the indicated time (10-15 min) at room temperature. The protein components of NLRP3 inflammasome were visualized using antibody recognizing NLRP3-Natch domain (FIG. 6A), NLRP-PYD domain (FIG. 6B), or NEK7 protein (FIG. 6C). […]
# T1 sequence (Q96P20 whole entry): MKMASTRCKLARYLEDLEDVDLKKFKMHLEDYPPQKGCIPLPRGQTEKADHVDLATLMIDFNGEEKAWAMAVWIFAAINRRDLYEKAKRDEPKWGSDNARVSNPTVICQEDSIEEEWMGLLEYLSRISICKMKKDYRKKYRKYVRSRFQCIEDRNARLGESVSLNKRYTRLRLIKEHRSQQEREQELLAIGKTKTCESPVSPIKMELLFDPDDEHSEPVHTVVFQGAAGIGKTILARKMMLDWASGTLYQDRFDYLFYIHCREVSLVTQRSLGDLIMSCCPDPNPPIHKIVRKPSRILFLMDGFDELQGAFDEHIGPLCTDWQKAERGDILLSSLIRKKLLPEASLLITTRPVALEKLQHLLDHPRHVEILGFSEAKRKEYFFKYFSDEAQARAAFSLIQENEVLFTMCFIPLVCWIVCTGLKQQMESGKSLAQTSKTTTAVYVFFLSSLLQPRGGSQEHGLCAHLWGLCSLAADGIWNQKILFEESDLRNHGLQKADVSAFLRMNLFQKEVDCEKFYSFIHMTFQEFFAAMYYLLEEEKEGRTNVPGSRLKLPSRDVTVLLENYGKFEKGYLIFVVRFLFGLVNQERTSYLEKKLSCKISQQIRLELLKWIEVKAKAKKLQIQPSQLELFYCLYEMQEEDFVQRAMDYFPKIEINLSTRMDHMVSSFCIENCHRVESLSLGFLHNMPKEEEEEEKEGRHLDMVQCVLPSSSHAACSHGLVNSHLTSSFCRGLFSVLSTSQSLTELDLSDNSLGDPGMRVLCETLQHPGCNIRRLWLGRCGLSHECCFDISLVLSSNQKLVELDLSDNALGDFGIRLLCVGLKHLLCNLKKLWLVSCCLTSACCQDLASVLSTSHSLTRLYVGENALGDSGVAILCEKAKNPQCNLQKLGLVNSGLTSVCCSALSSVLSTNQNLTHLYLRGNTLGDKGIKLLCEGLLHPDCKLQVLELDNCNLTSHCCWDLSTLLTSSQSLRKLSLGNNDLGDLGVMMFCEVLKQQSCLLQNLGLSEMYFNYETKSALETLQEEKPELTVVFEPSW
structure (smiles),measurement,setting,value
"CC1=C(O)C(=O)C=C2C1=CC=C1[C@@]2(C)CC[C@@]2(C)[C@@H]3C[C@](C)(N(C)C(=O)C(=O)N(C)C)CC[C@]3(C)CC[C@]12C [Compound 22, N′-[(2R,4aS,6aR,6aS,14aS,14bR)-10-hydroxy-2,4a,6a,6a,9,14a-hexamethyl-11-oxo-1,3,4,5,6,13,14,14b-octahydropicen-2-yl]-N,N,N′-trimethyl-oxamide]",minimal effective concentration,"[1]; Homo sapiens, FIG. 3C, read-out: concentration at which a strong inhibitory function was observed (as low as)",≤ 0.025 µM
same,inhibition of cellular ASC+FLICA+ specks / inflammasome complex,[1]; FIG. 3B,strong inhibitory effect; also recorded: inhibited NLRP3 inflammasome activity in THP1 and the cellular inflammasome complex as visualized by Amnis analysis
same,IC50,"[2]; Homo sapiens, THP-1, LPS and Nigericin, 0 μM to 10 μM, FIG. 7B, read-out: IC50 for LDH release (normalized)",12.4 nM
same,inhibition of LDH release,"[2]; THP-1, LPS and Nigericin, FIG. 7B",significantly inhibited release of LDH
same,higher potency relative to MCC950 in preventing pyroptosis,"[2]; from LDH release IC50 values, FIG. 7B",10 fold
same,inhibition of inflammasome-induced pyroptosis,[2],greater capacity to inhibit inflammasome-induced pyroptosis in human THP-1 macrophages
same,inhibition of inflammasome-induced pyroptosis,[2]; listed as CLM-022,"greater capacity than the benchmark molecule, MCC950, to inhibit inflammasome-induced pyroptosis in human THP-1 macrophages"
same,protection of NLRP3 protein from Pronase-induced degradation,[3],"markedly improved protection of NLRP3 protein, but not NEK7, from Pronase-induced degradation"
same,protection of NLRP3 protein from Pronase-induced degradation,[3]; listed as CLM-022,markedly protected NLRP3 protein from degradation which was obviously more efficient than that of MCC950
